# Laboratory results published in PubChem BioAssay (NCI).
#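 Briefly, cells in 96-well plates were exposed to five compound concentrations for 48 h, and endpoints were estimated by linear interpolation. The concentration for full growth arrest is given as TGI.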
# Legend:
# Assay in all cases: growth of human tumour cells (NCI), 48 h
# [1] = tested on: 786-0 renal
# [2] = tested on: A549 NSCLC
# [3] = tested on: ACHN renal
# [4] = tested on: BT-549 breast
# [5] = tested on: CAKI-1 renal
# [6] = tested on: CCRF-CEM leukemia
# [7] = tested on: COLO 205 colon
# [8] = tested on: DU-145 prostate
# [9] = tested on: EKVX NSCLC
# [10] = tested on: HCC-2998 colon
# [11] = tested on: HCT-116 colon
# [12] = tested on: HCT-15 colon
# [13] = tested on: HL-60(TB) leukemia
# [14] = tested on: HOP-62 NSCLC
# [15] = tested on: HOP-92 NSCLC
# [16] = tested on: HS 578T breast
# [17] = tested on: HT29 colon
# [18] = tested on: IGROV1 ovarian
# [19] = tested on: K-562 leukemia
# [20] = tested on: KM12 colon
# [21] = tested on: LOX IMVI melanoma
# [22] = tested on: M14 melanoma
# [23] = tested on: MALME-3M melanoma
# [24] = tested on: MCF7 breast
# [25] = tested on: MDA-MB-231 breast
# [26] = tested on: MDA-MB-435
# [27] = tested on: MDA-N
# [28] = tested on: NCI-H23 lung
# [29] = tested on: NCI-H460 lung
# [30] = tested on: NCI-H522 lung
# [31] = tested on: NCI/ADR-RES ovarian
# [32] = tested on: OVCAR-3 ovarian
# [33] = tested on: OVCAR-4 ovarian
# [34] = tested on: OVCAR-5 ovarian
# [35] = tested on: PC-3 prostate
# [36] = tested on: RPMI-8226 leukemia
# [37] = tested on: RXF 393 renal
# [38] = tested on: SF-268 CNS
# [39] = tested on: SF-295 CNS
# [40] = tested on: SF-539 CNS
# [41] = tested on: SK-MEL-2 melanoma
# [42] = tested on: SK-MEL-28 melanoma
# [43] = tested on: SK-MEL-5 melanoma
# [44] = tested on: SK-OV-3 ovarian
# [45] = tested on: SN12C renal
# [46] = tested on: SNB-19 CNS
# [47] = tested on: SNB-75 CNS
# [48] = tested on: SR leukemia
# [49] = tested on: SW-620 colon
# [50] = tested on: T-47D breast
# [51] = tested on: TK-10 renal
# [52] = tested on: U251 CNS
# [53] = tested on: UACC-257 melanoma
# [54] = tested on: UACC-62 melanoma
# [55] = tested on: UO-31 renal
# [56] = tested on: A498 renal
# [57] = tested on: MOLT-4 leukemia
# [58] = tested on: NCI-H226 lung
# [59] = tested on: OVCAR-8 ovarian
compound,measurement,setting,value
Cc1ccc(SC(=O)N2C(=S)NC(=NC3CCCCC3)C23CCCCC3)cc1,TGI,[1],> 100 µM
same,TGI,[2],> 100 µM
same,TGI,[3],> 100 µM
same,TGI,[4],> 100 µM
same,TGI,[5],> 100 µM
same,TGI,[6],> 100 µM
same,TGI,[7],> 100 µM
same,TGI,[8],> 100 µM
same,TGI,[9],> 100 µM
same,TGI,[10],> 100 µM
same,TGI,[11],> 100 µM
same,TGI,[12],> 100 µM
same,TGI,[13],> 100 µM
same,TGI,[14],> 100 µM
same,TGI,[15],> 100 µM
same,TGI,[16],> 100 µM
same,TGI,[17],> 100 µM
same,TGI,[18],> 100 µM
same,TGI,[19],> 100 µM
same,TGI,[20],> 100 µM
same,TGI,[21],> 100 µM
same,TGI,[22],> 100 µM
same,TGI,[23],> 100 µM
same,TGI,[24],> 100 µM
same,TGI,[25],> 100 µM
same,TGI,[26],> 100 µM
same,TGI,[27],> 100 µM
same,TGI,[28],> 100 µM
same,TGI,[29],> 100 µM
same,TGI,[30],> 100 µM
same,TGI,[31],> 100 µM
same,TGI,[32],> 100 µM
same,TGI,[33],> 100 µM
same,TGI,[34],> 100 µM
same,TGI,[35],> 100 µM
same,TGI,[36],> 100 µM
same,TGI,[37],> 100 µM
same,TGI,[38],> 100 µM
same,TGI,[39],> 100 µM
same,TGI,[40],> 100 µM
same,TGI,[41],> 100 µM
same,TGI,[42],> 100 µM
same,TGI,[43],> 100 µM
same,TGI,[44],> 100 µM
same,TGI,[45],> 100 µM
same,TGI,[46],> 100 µM
same,TGI,[47],> 100 µM
same,TGI,[48],> 100 µM
same,TGI,[49],> 100 µM
same,TGI,[50],> 100 µM
same,TGI,[51],> 100 µM
same,TGI,[52],> 100 µM
same,TGI,[53],> 100 µM
same,TGI,[54],> 100 µM
same,TGI,[55],> 100 µM
Nc1ccc(S(=O)(=O)NCc2nccs2)cc1,TGI,[1],77.3 µM
same,TGI,[56],33.4 µM
same,TGI,[2],94.3 µM
same,TGI,[3],63.4 µM
same,TGI,[4],45.3 µM
same,TGI,[5],84.6 µM
same,TGI,[6],38.2 µM
same,TGI,[7],32.7 µM
same,TGI,[8],95.5 µM
same,TGI,[9],40.7 µM
same,TGI,[11],40.8 µM
same,TGI,[12],83.8 µM
same,TGI,[13],44 µM
same,TGI,[14],> 100 µM
same,TGI,[15],41.4 µM
same,TGI,[16],68.4 µM
same,TGI,[17],31.3 µM
same,TGI,[18],56.8 µM
same,TGI,[19],82.8 µM
same,TGI,[20],45 µM
same,TGI,[21],41.7 µM
same,TGI,[22],37.2 µM
same,TGI,[24],61.4 µM
same,TGI,[25],68.2 µM
same,TGI,[26],38.8 µM
same,TGI,[27],54.1 µM
same,TGI,[57],69 µM
same,TGI,[58],59 µM
same,TGI,[28],58.9 µM
same,TGI,[29],> 100 µM
same,TGI,[30],35.6 µM
same,TGI,[31],62.7 µM
same,TGI,[32],> 100 µM
same,TGI,[33],95.7 µM
same,TGI,[34],35.7 µM
same,TGI,[59],> 100 µM
same,TGI,[35],> 100 µM
same,TGI,[36],56.1 µM
same,TGI,[37],> 100 µM
same,TGI,[38],46.3 µM
same,TGI,[39],> 100 µM
same,TGI,[40],36.2 µM
same,TGI,[41],37.9 µM
same,TGI,[42],51.2 µM
same,TGI,[43],29.6 µM
same,TGI,[44],> 100 µM
same,TGI,[45],37.8 µM
same,TGI,[46],> 100 µM
same,TGI,[47],58.8 µM
same,TGI,[48],> 100 µM
same,TGI,[49],> 100 µM
same,TGI,[50],71.8 µM
same,TGI,[51],56.5 µM
same,TGI,[52],47.5 µM
same,TGI,[53],44.5 µM
same,TGI,[54],41.8 µM
same,TGI,[55],55.1 µM
CSc1c(C#N)c2n(c3ccccc13)c1ccccc1[n+]2C,TGI,[1],> 100 µM
same,TGI,[56],60 µM
same,TGI,[2],81.8 µM
same,TGI,[3],50.9 µM
same,TGI,[4],74.3 µM
same,TGI,[5],84.3 µM
same,TGI,[6],47.6 µM
same,TGI,[7],38.6 µM
same,TGI,[8],92.6 µM
same,TGI,[9],56.9 µM
same,TGI,[10],64.8 µM
same,TGI,[11],40.8 µM
same,TGI,[12],> 100 µM
same,TGI,[13],56.9 µM
same,TGI,[14],52.7 µM
same,TGI,[15],> 100 µM
same,TGI,[16],> 100 µM
same,TGI,[17],46.2 µM
same,TGI,[18],> 100 µM
same,TGI,[20],> 100 µM
same,TGI,[21],> 100 µM
same,TGI,[22],> 100 µM
same,TGI,[23],34.6 µM
same,TGI,[24],> 100 µM
same,TGI,[25],60.1 µM
same,TGI,[26],79.5 µM
same,TGI,[27],63.5 µM
same,TGI,[57],38.6 µM
same,TGI,[28],70.7 µM
same,TGI,[29],> 100 µM
same,TGI,[30],31.5 µM
same,TGI,[31],68.4 µM
same,TGI,[32],> 100 µM
same,TGI,[33],> 100 µM
same,TGI,[34],> 100 µM
same,TGI,[59],59.3 µM
same,TGI,[35],78.5 µM
same,TGI,[36],85.6 µM
same,TGI,[38],> 100 µM
same,TGI,[39],> 100 µM
same,TGI,[40],78.8 µM
same,TGI,[41],39.1 µM
same,TGI,[42],> 100 µM
same,TGI,[43],26.7 µM
same,TGI,[45],53.1 µM
same,TGI,[47],> 100 µM
same,TGI,[48],> 100 µM
same,TGI,[49],> 100 µM
same,TGI,[50],> 100 µM
same,TGI,[51],93.6 µM
same,TGI,[52],73.7 µM
same,TGI,[53],67.8 µM
same,TGI,[54],47.1 µM
same,TGI,[55],64.9 µM
